From ChEMBL document CHEMBL1122447, “2-Acetylpyridine thiosemicarbazones. 5. 1-[1-(2-Pyridyl)ethyl]-3-thiosemicarbazides as potential antimalarial agents” (1983)

How the values were obtained:
[1] = test system: Plasmodium berghei; test: Increased mean survival time in drug-sensitive Plasmodium berghei infected mice (Mus musculus) at 640 mg/kg; toxic in 5 of 5; type: functional, organism-based; set-up: dose 640 mg/kg
[2] = test system: Plasmodium berghei; test: Increased mean survival time in drug-sensitive Plasmodium berghei infected mice (Mus musculus) at 80 mg/kg; cured 5 of 5; type: functional, organism-based; set-up: dose 80 mg/kg
[3] = test system: Plasmodium berghei; test: Increased mean survival time in drug-sensitive Plasmodium berghei infected mice (Mus musculus) at 40 mg/kg; cured 4 of 5; type: functional, organism-based; set-up: dose 40 mg/kg
[4] = test system: Plasmodium berghei; test: Increased mean survival time in drug-sensitive Plasmodium berghei infected mice (Mus musculus) at 160 mg/kg; cured 2 of 5; type: functional, organism-based; set-up: dose 160 mg/kg
[5] = test system: Plasmodium berghei; test: Increased mean survival time in drug-sensitive Plasmodium berghei infected mice (Mus musculus) at 20 mg/kg; cured 3 of 5; type: functional, organism-based; set-up: dose 20 mg/kg
[6] = test system: Plasmodium berghei; test: Increased mean survival time in drug-sensitive Plasmodium berghei infected mice (Mus musculus) at 320 mg/kg dose; type: functional
[7] = test system: Plasmodium berghei; test: Increased mean survival time in drug-sensitive Plasmodium berghei infected mice (Mus musculus) at 640 mg/kg; toxic in 2 of 5; type: functional
[8] = test system: Plasmodium berghei; test: Increased mean survival time in drug-sensitive Plasmodium berghei infected mice (Mus musculus) at 40 mg/kg dose; type: functional
[9] = test system: Plasmodium berghei; test: Increase in mean survival time in drug-sensitive Plasmodium berghei infected mice (Mus musculus) at 160 mg/kg dose; type: functional
[10] = test system: Plasmodium berghei; test: Increased mean survival time in drug-sensitive Plasmodium berghei infected mice (Mus musculus) at 640 mg/kg; cured 3 of 5; type: functional, organism-based; set-up: dose 640 mg/kg
[11] = test system: Plasmodium berghei; test: Increased mean survival time in drug-sensitive Plasmodium berghei in mice (Mus musculus) at 80 mg/kg dose; type: functional
[12] = test system: Plasmodium berghei; test: Increased mean survival time in drug-sensitive Plasmodium berghei infected mice (Mus musculus) at 320 mg/kg; cured 2 of 5; type: functional, organism-based; set-up: dose 320 mg/kg
[13] = test system: Plasmodium berghei; test: Increase in mean survival time in drug-sensitive Plasmodium berghei infected mice (Mus musculus) at 160 mg/kg dose; cured 1 of 5; type: functional, organism-based; set-up: dose 160 mg/kg
[14] = test system: Plasmodium berghei; test: Increased mean survival time in drug-sensitive Plasmodium berghei infected mice (Mus musculus) at 20 mg/kg dose; type: functional
[15] = test system: Plasmodium berghei; test: Antimalarial activity as increased MST in Plasmodium berghei infected mice (Mus musculus) at 160 mg/kg; type: functional
[16] = test system: Plasmodium berghei; test: Antimalarial activity as increased MST in Plasmodium berghei infected mice (Mus musculus) at 40 mg/kg; type: functional
[17] = test system: Plasmodium berghei; test: Antimalarial activity as increased MSTin Plasmodium berghei infected mice (Mus musculus) at 640 mg/kg; Toxic in 3 of 5; type: functional
[18] = test system: Plasmodium berghei; test: Antimalarial activity against Plasmodium berghei infected mice (Mus musculus) at 160 mg/kg; cured 1 of 5; type: functional, organism-based; set-up: dose 160 mg/kg
[19] = test system: Plasmodium berghei; test: Antimalarial activity against Plasmodium berghei infected mice (Mus musculus) at 160 mg/kg; toxic in 3 of 5; type: functional, organism-based; set-up: dose 160 mg/kg
[20] = test system: Plasmodium berghei; test: Antimalarial activity against Plasmodium berghei infected mice (Mus musculus) at 40 mg/kg; cured 1 of 5; type: functional, organism-based; set-up: dose 40 mg/kg
[21] = test system: Plasmodium berghei; test: Antimalarial activity against Plasmodium berghei infected mice (Mus musculus) at 640 mg/kg; toxic in 5 of 5; type: functional, organism-based; set-up: dose 640 mg/kg
[22] = test system: Plasmodium berghei; test: Increased mean survival time in drug-sensitive Plasmodium berghei infected mice (Mus musculus) at 5 mg/kg; cured 2 of 5; type: functional
[23] = test system: Plasmodium berghei; test: Increased mean survival time in drug-sensitive Plasmodium berghei infected mice (Mus musculus) at 160 mg/kg; cured 1 of 5; type: functional, organism-based; set-up: dose 160 mg/kg
[24] = test system: Plasmodium berghei; test: Antimalarial activity against Plasmodium berghei infected mice (Mus musculus) at 20 mg/kg; toxic in 1 of 5; type: functional, organism-based; set-up: dose 20 mg/kg
[25] = test system: Plasmodium berghei; test: Antimalarial activity against Plasmodium berghei infected mice (Mus musculus) at 40 mg/kg; toxic in 5 of 5; type: functional, organism-based; set-up: dose 40 mg/kg
[26] = test system: Plasmodium berghei; test: Increased MST in drug-sensitive Plasmodium berghei infected mice (Mus musculus) at 10 mg/kg; […]; type: functional, organism-based; set-up: dose 10 mg/kg
[27] = test system: Plasmodium berghei; test: Increased mean survival time in drug-sensitive Plasmodium berghei infected mice (Mus musculus) at 40 mg/kg; active; type: functional
[28] = test system: Plasmodium berghei; test: Antimalarial activity against Plasmodium berghei infected mice (Mus musculus) at 320 mg/kg; toxic in 5 of 5; type: functional, organism-based; set-up: dose 320 mg/kg
[29] = test system: Plasmodium berghei; test: Antimalarial activity against Plasmodium berghei in mice (Mus musculus) at 40 mg/kg; toxic in 3 of 5; type: functional, organism-based; set-up: dose 40 mg/kg
[30] = test system: Plasmodium berghei; test: Antimalarial activity against Plasmodium berghei infected mice (Mus musculus) at 160 mg/kg; toxic in 5 of 5; type: functional, organism-based; set-up: dose 160 mg/kg
[31] = test system: Plasmodium berghei; test: Increased mean survival time in drug-sensitive Plasmodium berghei infected mice (Mus musculus) at 160 mg/kg; cured 4 of 5; type: functional, organism-based; set-up: dose 160 mg/kg
[32] = test system: Plasmodium berghei; test: Increased mean survival time in drug-sensitive Plasmodium berghei infected mice (Mus musculus) at 40 mg/kg; cured 1 of 5; type: functional, organism-based; set-up: dose 40 mg/kg
[33] = test system: Plasmodium berghei; test: Increased mean survival time in drug-sensitive Plasmodium berghei infected mice (Mus musculus) at 80 mg/kg; active; type: functional
[34] = test system: Plasmodium berghei; test: Increased mean survival time in drug-sensitive Plasmodium berghei infected mice (Mus musculus) at 160 mg/kg; cured 3 of 5; type: functional, organism-based; set-up: dose 160 mg/kg
[35] = test system: Plasmodium berghei; test: Antimalarial activity against Plasmodium berghei infected mice (Mus musculus) at 160 mg/kg; toxic in 1 of 5; type: functional, organism-based; set-up: dose 160 mg/kg
[36] = test system: Plasmodium berghei; test: Antimalarial activity against Plasmodium berghei infected mice (Mus musculus) at 320 mg/kg; toxic in 2 of 5; type: functional, organism-based; set-up: dose 320 mg/kg
[37] = test system: Plasmodium berghei; test: Antimalarial activity against Plasmodium berghei infected mice (Mus musculus) at 320 mg/kg; toxic in 3 of 5; type: functional, organism-based; set-up: dose 320 mg/kg
[38] = test system: Plasmodium berghei; test: Antimalarial activity against Plasmodium berghei infected mice (Mus musculus) at 80 mg/kg; toxic in 1 of 5; type: functional, organism-based; set-up: dose 80 mg/kg
[39] = test system: Plasmodium berghei; test: Increased mean survival time in drug-sensitive Plasmodium berghei infected mice (Mus musculus) at 160 mg/kg; toxic in 5 of 5; type: functional, organism-based; set-up: dose 160 mg/kg
[40] = test system: Plasmodium berghei; test: Increased mean survival time in drug-sensitive Plasmodium berghei infected mice (Mus musculus) at 40 mg/kg; cured 3 of 5; type: functional, organism-based; set-up: dose 40 mg/kg

C/C(=N\NC(=S)N1CCN(c2ccccn2)CC1)c1ccccn1
Survival time [1]: Toxic in 5 of 5 mice | Survival time [2]: Cured 5 of 5 mice | Survival time [3]: Cured 4 of 5 mice | Survival time [4]: Cured 2 of 5 mice | Survival time [5]: Cured 3 of 5 mice | Survival time [6]: 0.7 days

C/C(=N\N=C(/S)NCc1ccccc1)c1ccccn1
Survival time [7]: 10.6 days | Survival time [8]: 0.5 days | Survival time [9]: 3.7 days

C/C(=N\N=C(/[SeH])N1CC2CCC(CC2)C1)c1ccccn1
Survival time [10]: Cured 3 of 5 mice | Survival time [11]: 5.9 days | Survival time [12]: Cured 2 of 5 mice | Survival time [8]: 0.8 days | Survival time [13]: Cured 1 of 5 mice | Survival time [14]: -0.1 days

CC(N/N=C(\S)NCc1ccccc1)c1ccccn1 (stereo not given)
Survival time [15]: 0.7 days | Survival time [16]: -0.1 days | Survival time [17]: 2.4 days

CC1CCN(/C(S)=N/NC(C)c2ccccn2)CC1 (stereo not given)
Survival time [18]: Cured 1 of 5 mice | Survival time [19]: Toxic in 3 of 5 mice | Survival time [20]: Cured 1 of 5 mice | Survival time [21]: Toxic in 5 of 5 mice

C/C(=N\NC(=S)N(C)C)c1ccccn1
Survival time [1]: Toxic in 5 of 5 mice | Survival time [8]: 0.5 days

CC(N/N=C(\S)N1CC2CCC(CC2)C1)c1ccccn1 (stereo not given)
Survival time [22]: 7.9 days | Survival time [23]: Cured 1 of 5 mice | Survival time [19]: Toxic in 3 of 5 mice | Survival time [24]: Cured 4 of 5 mice; toxic in 1 of 5 mice | Survival time [25]: Toxic in 5 of 5 mice | Survival time [21]: Toxic in 5 of 5 mice | Survival time [26]: Cured 2 of 5 mice

CCOC(=O)N1CCN(/C(S)=N/NC(C)c2ccccn2)CC1 (stereo not given)
Survival time [27]: 7.2 days | Survival time [19]: Toxic in 5 of 5 mice | Survival time [28]: Toxic in 5 of 5 mice | Survival time [29]: Toxic in 3 of 5 mice | Survival time [21]: Toxic in 5 of 5 mice | Survival time [14]: 5.9 days

CC(N/N=C(\S)N1CCCCCC1)c1ccccn1 (stereo not given)
Survival time [8]: 2.4 days | Survival time [30]: Toxic in 5 of 5 mice | Survival time [21]: Toxic in 5 of 5 mice

CC(N/N=C(\S)N1CCC(c2ccccc2)CC1)c1ccccn1 (stereo not given)
Survival time [31]: Cured 4 of 5 mice | Survival time [32]: Cured 1 of 5 mice | Survival time [21]: Toxic in 5 of 5 mice

CC(N/N=C(\S)N(C)C1CCCCC1)c1ccccn1 (stereo not given)
Survival time [8]: 3.7 days | Survival time [33]: 7.1 days | Survival time [34]: Cured 3 of 5 mice | Survival time [35]: Toxic in 1 of 5 mice | Survival time [24]: Toxic in 1 of 5 mice | Survival time [36]: Cured 2 of 5 mice | Survival time [37]: Toxic in 3 of 5 mice | Survival time [38]: Toxic in 1 of 5 mice | Survival time [14]: 2.9 days

C/C(=N\N=C(/S)N1CCC(C)CC1)c1ccccn1
Survival time [1]: Toxic in 5 of 5 mice | Survival time [39]: Toxic in 5 of 5 mice | Survival time [40]: Cured 3 of 5 mice
